Source: patent US20200268765A1, “METHOD OF TREATING MEDULLOBLASTOMA WITH AN EZH2 INHIBITOR” (Epizyme, Inc., priority 2015, published 2020)
Entries after “also recorded” stand apart in the source; their conditions may differ.

Columns and labels:
BT-16 ATRT cell line = test: Surviving fraction after 2Gy radiation, BT-16; assay type: cell-based; settings: FIG. 25A
Description: FIG. 25A is a pair of graphs showing a surviving fraction of untreated or DZNEP-treated ATRT cells (from a BT-16 ATRT cell line) exposed to 2Gy radiation. Inhibition of EZH2 radio-sensitizes ATRT.

[1] = tested on: atypical teratoid rhabdoid tumors (ATRTs); test: ATRT cell self-renewal; assay type: cell-based
Description: FIG. 24A is a series of photographs showing control or EZH2 inhibitor-treated (DNZep-treated) atypical teratoid rhabdoid tumors (ATRTs) at 1, 3, 5, and 7 days post-treatment.
FIG. 24D is a series of photographs showing control or EZH2 inhibitor-treated (DNZep-treated) atypical teratoid rhabdoid tumors (ATRTs) at 3, 5, 8 and 10 days post-treatment.

UPN737 ATRT cell line = test: Surviving fraction after 2Gy radiation, UPN737; assay type: cell-based; settings: FIG. 25B
Description: FIG. 25B is a pair of graphs showing a surviving fraction of untreated or DZNEP-treated ATRT cells (from a UPN737 ATRT cell line, “737”) exposed to 2Gy radiation. Inhibition of EZH2 radio-sensitizes ATRT.

[2] = tested on: G401 SNF5 mutant cell line; test: CellTiter-Glo Luminescent Cell Viability Assay after 7 days pretreatment; assay type: cell-based; settings: pretreated for 7 days, replated on day 0; FIGS. 4A-4D
Experimental: FIGS. 4A-4D are four graphs showing that G401 SNF5 mutant cell line is sensitive to Compound A in vitro. Wild type cell line SJCRH30 (FIG. 4A) and RD (FIG. 4C) and SNF5 mutant cell line G401 (FIG. 4B) and A204 (FIG. 4D) were pretreated for 7 days with indicated concentrations of Compound A and replated on day 0. Cell viability was determined by CellTiter-Glo® Luminescent Cell Viability Assay.

G401 xenografts = test: G401 xenograft (malignant rhabdoid tumor model); assay type: in vivo, SCID mice
Experimental: Data represent the mean values±SEM (n=8). Compound administration was stopped on day 28. FIG. 5C: EZH2 target inhibition in G401 xenograft tumor tissue collected from a parallel cohort of mice on day 21. […] Horizontal lines represent group mean values. BLLQ=below lower limit of quantification. FIGS. 5D and 5E show Immunohistochemical staining of tumor histone methylation of tumor samples from the vehicle treated (FIG. 5D) and Compound A treated (FIG. 5E) (at 125 mg/kg) mice.
Data are presented as mean values±SEM (n=16 until day 21, n=8 from day 22 to 60). […] FIG. 15C: Tumor weights of 8 mice euthanized on day 21. ****p<0.0001, Fisher's exact test. FIG. 15D: Plasma was collected 5 min before and 3 h after dosing of Compound A on day 21, and compound levels were measured by LC-MS/MS. Animals were euthanized, and tumors were collected 3 h after dosing on day 21. Tumor homogenates were generated and subjected to LC-MS/MS analysis to determine Compound A concentrations. Note that tumor compound levels could not be determined from all animals especially in the higher dose groups because the xenografts were too small on day 21. Dots represent values for the individual animals; horizontal lines represent group mean values.
FIGS. 16A-16F are a series of graphs showing that Compound A eradicates SMARCB1-deleted MRT xenografts in SCID mice. […]

[3] = tested on: SMARCB1-deleted MRT cells; test: Cell cycle analysis (flow cytometry) and apoptosis (TUNEL assay); assay type: cell-based; settings: 1 μM, up to 14 days, FIG. 13
Experimental: Cell cycle analysis (by flow cytometry) and determination of apoptosis (by TUNEL assay) in RD (FIG. 13A) or G401 cells (FIG. 13B) during incubation with either vehicle or 1 μM Compound A for up to 14 days. G1 arrest was observed as of day 7 and apoptosis was induced as of day 11. Data are represented as mean values±SEM (n=2). The DMSO control values shown are the average±SEM from each time point. Cells were split and re-plated on days 4, 7 and 11 at the original seeding density.

[4] = tested on: primary medulloblastoma cells
Experimental: FIG. 28A is a schematic diagram depicting the process by which primary medulloblastoma cell growth is evaluated ex vivo.
A slice culture of medulloblastoma was freshly isolated from a subject.
A patient having medulloblastoma underwent surgery to remove a slice of tumor tissue for testing. The medulloblastoma slice was cultured ex vivo on tissue supporting inserts (FIG. 28A). […] Following the treatment period, the cells of the slice culture were treated with BrdU for 4 hours prior to disaggregation and sorting by flow cytometry.

[5] = tested on: cellular H3K27Me3 levels in G401 and RD cells; test: Cellular histone methylation (immunoblot of acid-extracted histones); assay type: cell-based
Experimental: FIGS. 10A-10F are a series of graphs showing effects of Compound A on cellular global histone methylation and cell viability.
FIG. 12A: Cell lysates were analyzed by immunoblot with antibodies specific to SMARCB1, EZH2 and Actin (loading control). […] Cells were incubated with Compound A for 4 days, and acid-extracted histones were analyzed by immunoblot.

ATRT = ATRT survival in vivo; settings: versus vehicle; FIG. 29A
Oral bioavailability = settings: in vivo
medulloblastoma cells = test: Medulloblastoma cell growth (total cells per milliliter over time); assay type: cell-based; settings: for medulloblastoma cell growth (total cells per milliliter): as a function of time (days), FIGS. 26A-26C
Description: The total cells per milliliter of culture were counted each day for 10 days.

SMARCB1 regulated genes = test: Gene expression by qPCR; assay type: cell-based; settings: G401 and RD cells, 1 μM, 2, 4 and 7 days; FIGS. 14A-14L
Experimental: FIG. 14A: Basal expression of SMARCB1 regulated genes in G401 SMARCB1-deleted cells, relative to RD control cells (measured by qPCR, n=2). FIGS. 14B-14K: G401 and RD cells were incubated with either DMSO or 1 μM Compound A for 2, 4 and 7 days. Gene expression was determined by qPCR (n=2) and is expressed relative to the DMSO control of each time point. FIGS. 14B-14K correspond to genes GLI1, PTCh1, DOCK4, CD133, PTPRK, BIN1, CDKN1A, CDKN2A, EZH2, and MYC, respectively. FIG. 14L: G402 cells were incubated with either DMSO (left panel) or 1 μM Compound A (right panel) for 14 days. Cells were split and re-plated to the original seeding density on day 7.

[6] = tested on: SNF5 mutant cell lines A204, G401 and G402; test: Response of SNF5 mutant versus wild type cell lines to EZH2 compound; assay type: cell-based; settings: compared to wild type cell lines RD and SJCRH30; FIGS. 2A-2E
[7] = tested on: ATRX mutant SCLC lines NCI-H446, SW1271 and NCI-H841; test: Response of ATRX mutant SCLC lines; assay type: cell-based; settings: FIGS. 8A-8C
Description: FIGS. 8A-8C are three graphs establishing that ATRX mutant SCLC lines NCI-H446 (FIG. 8A), SW1271 (FIG. 8B) and NCI-H841 (FIG. 8C) are responding to Compound D.

SCLC line NCI-H841 = test: Microscopy of cell morphology; assay type: cell-based; settings: 4.1E-02 uM or 3.3 uM; FIGS. 9A-9C
[8] = tested on: LNCAP prostate cancer cells; test: LNCAP cell growth inhibition in vitro; assay type: cell-based; settings: FIG. 7A
[9] = tested on: G401 SNF mutant cell line; test: Soft agar growth of G401 versus RD cells; assay type: cell-based; settings: after 7 days in soft agar, compared to wild type cells RD; FIGS. 3A-3D
Description: FIGS. 3A-3D are a series of bar graphs showing that G401 SNF mutant cell line is responding to Compound D after 7 days in soft agar compared to wild type cells RD.

[10] = 500 nM or 2 μM, 4 days, compared to untreated control

Nc1nccc2c1ncn2C1C=C(CO)C(O)C1O (stereo not shown) [DNZep]
radio-sensitization (surviving fraction) (BT-16 ATRT cell line): radio-sensitizes | ATRT cell self-renewal ([1]; 1, 3, 5, and 7 days post-treatment, FIG. 24A): suppresses ATRT cell self-renewal | ATRT cell self-renewal ([1]; 3, 5, 8 and 10 days post-treatment, FIG. 24D): suppresses ATRT cell self-renewal | radio-sensitization (surviving fraction) (UPN737 ATRT cell line): radio-sensitizes

CCN(c1cc(-c2ccc(CN3CCOCC3)cc2)cc(C(=O)NCc2c(C)cc(C)[nH]c2=O)c1C)C1CCOCC1 [tazemetostat]
cell viability (sensitivity in vitro) [2]: sensitive | tumor regression (G401 xenografts; administration stopped on day 28, FIGS. 5A-5B): durable regressions | tumor regression (G401 xenografts; twice daily (BID) for 21 days, FIG. 15B): Tumor regressions induced | day as of which apoptosis was induced ([3]; TUNEL): 11 days | day as of which G1 arrest was observed [3]: 7 days | proportion of cells in the G0/G1 stage [4, 10]: increased proportion | proportion of cells in the G2/M stage [4, 10]: decreased proportion | primary medulloblastoma cell growth ex vivo (cell cycle stages) ([4]; slice culture treated 4 days, FIG. 28B): decreases primary medulloblastoma cell growth ex vivo | primary medulloblastoma cell growth ex vivo (BrdU) ([4]; slice culture treated 4 days, FIG. 28C): decreases primary medulloblastoma cell growth ex vivo | inhibition of cellular H3K27 methylation (specificity) ([5]; 4 days incubation, immunoblot, FIG. 12B): Selective inhibition of cellular H3K27 methylation | inhibition of cellular H3K27Me3 levels ([5]; FIG. 10B): Concentration-dependent inhibition | percent survival / ATRT in vivo (ATRT): decreases ATRT in vivo | oral bioavailability (Oral bioavailability): orally bioavailable | medulloblastoma cell growth versus negative control (DMSO) (medulloblastoma cells; 0.5 μM, 2 μM and 6 μM, counted each day for 10 days, FIG. 26C): significant decrease | effect on medulloblastoma cell growth compared with the other small molecule inhibitors tested (medulloblastoma cells; GSK-126, UNC 1999 and tazemetostat, FIG. 26D): superior ability to decrease medulloblastoma cell growth; also recorded: greatest effect | medulloblastoma cell growth (total cells per milliliter) (medulloblastoma cells): decrease medulloblastoma cell growth | expression of SMARCB1 regulated genes (SMARCB1 regulated genes): induces changes in expression

CCCc1cc(C)[nH]c(=O)c1CNC(=O)c1cc(-c2ccc(N3CCN(C(C)C)CC3)nc2)cc2c1cnn2C(C)C [UNC 1999, reference compound]
medulloblastoma cell growth (total cells per milliliter) (medulloblastoma cells): decrease medulloblastoma cell growth

CC[C@H](C)n1cc(C)c2c(C(=O)NCc3c(C)cc(C)[nH]c3=O)cc(-c3ccc(N4CCNCC4)nc3)cc21 [GSK-126, reference compound]
medulloblastoma cell growth (total cells per milliliter) (medulloblastoma cells): decrease medulloblastoma cell growth

CCN(c1cc(-c2ccc(CN3CCOCC3)cc2)cc(C(=O)NCc2c(C)cc(C)[nH]c2=O)c1C)[C@H]1CC[C@H](N(C)C)CC1 [Compound D]
response of cell lines to EZH2 compound [6]: selectively respond | response of cell lines [7]: responding | cell morphology (SCLC line NCI-H841): changes morphology | cell growth inhibition [8]: dose-dependent cell growth inhibition | response in soft agar [9]: responding
